Results on 1 compound are retold here after patent publication US20240410831A1, “Multi-Mode Zinc-Selective Emission-Ratiometric Fluorescent Probes for Biological Application” (Georgia Tech Research Corporation, priority 2023, published 2024).

Data set [1] relates to live mouse fibroblast 3T3 cells. The data set can be described thus: Ratiometric imaging of labile Zn(II) by laser confocal fluorescence microscopy (excitation at 405 nm). The data set is classed as cell-based. Particulars: for average fluorescence ratio R (BP2/BP1): confocal 405 nm. The method, then: With reference to FIG. 7B, ratiometric imaging of labile Zn(II) pools in live mouse fibroblast 3T3 cells with Formula I and/or Formula IA (e.g., for example probe 8) by TPEM (excitation at 405 nm). (A) of FIG. 7B Left: Intensities acquired with 520 nm-600 nm (BP2) and 440 nm-495 nm (BP1) bandpass filters respectively. Right: Intensity ratio imagines with R=BP2/BP1. (B) of FIG. 7B Left: Ratio images (BP2/BP1) before (prior to t=5 min) and after the addition of 50 μM ZnSO4 and 5.0 μM pyrithione. Addition of TPEN at t=15 min resulted the reversal of the initial fluorescence ratio change. (C) of FIG. 7B: Mean fluorescence ratio of the cytoplasmic region averaged over 10 cells (P values calculated for n=10 using a two-tailed test). (D) of FIG. 7B: Time course of the average ratio change for mean fluorescence ratio in the cytosol averaged over 10 cells.
To investigate whether Formula I, Formula II, and/or a derivative thereof (e.g., for example probe 8) may also be employed with one-photon excitation at 405 nm, the imagine experiment was repeated with a conventional confocal fluorescence microscope equipped with a 405 nm laser as the excitation source. […] The averaged fluorescence ratio indicated a uniform fractional saturation with an average ratio of R=0.57±0.04. […] The difference in fluorescence ratios is likely due to differences in the absorption cross sections for linear vs. non-linear excitation. In principle, the ratio response could be further tuned by adjusting the sensitivity of the bandpass detectors.
In various embodiments, mouse fibroblast (3T3) cells were grown on poly-L-lysine treated glass bottom culture dishes (MatTek) to 90% confluency in DMEM growth media supplemented with 10% bovine calf serum, and 1% penicillin-streptomycin. Before imaging, the media was replaced with pre-warmed colorless serum-free DMEM (1% penicillin-streptomycin, and 1% sodium pyruvate) containing 1.0 μM of probe 8. The cells were incubated at 37° C. under an atmosphere of humidified air containing 5% CO2 for 15 mins. The incubation solution was replaced with prewarmed colorless serum free DMEM. Images were acquired at 37° C., 8% humidity, and 5% CO2 using a Zeiss LSM NLO 710 microscope equipped with a femtosecond pulsed Ti:sapphire laser and a blue 405 nm laser. Scanning fluorescence micrographs were acquired with excitation at 405 nm or 750 nm and the emission was simultaneously collected with bandpass ranges of 495-440 nm (BP1) and 600-520 nm (BP2). Image J was used to evaluate the change in fluorescence emission ratio over time as previously described. The emission ratio for each region of interest was averaged at each time point.
TPEN solid was fully dissolved in anhydrous DMSO to a concentration of 3.0 mM. […]

Data set [2] can be described thus: Molar ratio titration with Zn(OTf)2 in methanol (absorption and fluorescence). The conditions noted are these: for fluorescence emission maximum: excitation at 395 nm. The data set is classed as physicochemical. Here is the method:
To prevent solution aggregation of the charge-neutral compounds exemplified by Formula I, Formula II, and/or a derivative thereof (e.g., for example probe 8) in PIPES buffer, the initial solution characterization was conducted in analytical grade MeOH. […] Consistent with an increased ground- and excited state polarization upon Zn(II) complexation, the absorption maximum is red-shifted by 34 nm from 376 nm to 410 nm. Sharp isosbestic points at 306 nm and 395 nm, as well as saturation at an equimolar Zn(II) concentration are indicative of a well-defined solution equilibrium involving only the free probe 8 and a discrete Zn(II)-complex with 1:1 metal-ligand stoichiometry.
Similarly, the fluorescence emission maximum of Formula I, Formula II, and/or a derivative thereof (e.g., for example probe 8) is red-shifted from 460 nm to 513 nm upon Zn(II)-binding. […] To provide a direct comparison with previous probes, probe 8 was also analyzed in aqueous buffer containing DMPC/DMPG liposomes that mimic the lipid bilayers present in cells.
A solution of Formula I, Formula II, and/or a derivative thereof (e.g., for example probe 8) (10 μM) in analytical grade MeOH prepared in a quartz cuvette with a 1-cm pathlength was titrated with Zn(OTf)2 (from a 0.3 mM aqueous stock solution) in 1.0 μM (0.1 molar equiv.) increments. After each aliquot of Zn(II), the solution was equilibrated for 1 minute by magnetic stirring, and an absorbance (spectral window: 250-500 nm) and fluorescence spectrum (excitation at 395 nm, spectral window 405-705 nm) were acquired. In another embodiment, a solution of Formula I, Formula II, and/or a derivative thereof (e.g., for example probe 8 in FIG. 4H) (10 PM) in Chelex®-PIPES buffer (10 mM, 0.1 M KCl, pH 7.0, 25° C.) containing 100 μM of liposomes (4:1 mixture of DMPC and DMPG) prepared in a quartz cuvette with a 1-cm pathlength was titrated with Zn(OTf)2 (from a 0.3 mM aqueous stock solution) in 1.0 μM (0.1 molar equiv.) increments. After each aliquot of Zn(II), the solution was equilibrated for 1 minute by magnetic stirring, and a fluorescence spectrum (excitation: 405 nm, spectral window 420-700 nm) was acquired.

Each structure is given as a SMILES string.

In the case of `COc1ccc2c(c1)C(C)(C)c1nc(-c3cccc(CN(Cc4ncccn4)Cc4ncccn4)n3)sc1-2` [probe 8], the cellular uptake result in data set [1] (3T3 cells, confocal) is given as “readily internalized”. The “average fluorescence ratio R (BP2/BP1)” value in data set [1] (after TPEN) stood at 0.56±0.04; in data set [1] (after Zn(II) and ionophore pyrithione) it was 1.04±0.12; in data set [1] (basal), 0.57±0.04. For the same compound, the “red shift of absorption maximum upon Zn(II) complexation” value in data set [2] stood at 34 nm. For the same compound, the absorption maximum came out at 410 nm in data set [2] (Zn(II) complex) and 376 nm in data set [2] (free probe, 10 μM). Moreover, the fluorescence emission maximum was found to be 513 nm in data set [2] (Zn(II)-bound) and 460 nm in data set [2] (free probe).
